From ChEMBL document CHEMBL1201862, “PubChem BioAssay data set” (2004)
Activity calls are given as the source filed them.

Experiments:
[1] = biological target: Aryl hydrocarbon receptor (Homo sapiens, UniProt P35869); assay: Luminescence-based cell-based high throughput dose response assay for activators of the Aryl Hydrocarbon Receptor (AHR). [Related pubchem assays: 2796 (Primary screen (AHR activators in singlicate)), 2845 (Confirmation screen (AHR activators in triplicate)), 434939 (Counterscreen (PXR activators in triplicate)), 2804 (Summary (AHR activators))]; type: ADME
SUMO-activating enzyme [2] = biological target: T1, SUMO-activating enzyme (Homo sapiens, UniProt Q9UBT2); assay: inhibitors of in vitro SUMOylation cascade, primary screen, biochemical, HTRF, uHTS (AID 2006); type: protein-complex assay
SUMO-activating enzyme [3] = biological target: T1, SUMO-activating enzyme; assay: SUMOylation inhibitor hit validation, confirmation, SUMOylation inhibitor project, biochemical, AlphaScreen (AID 2018); type: functional
[4] = biological target: T2, Rac GTPase-activating protein 1 (Homo sapiens, UniProt Q9H0H5); assay: MgcRacGAP GTPase-activating activity inhibitors, confirmation, biochemical, ADP Hunter fluorescence, primary and confirmatory (AID 624330); type: functional
T2 sequence (Q9H0H5 whole entry): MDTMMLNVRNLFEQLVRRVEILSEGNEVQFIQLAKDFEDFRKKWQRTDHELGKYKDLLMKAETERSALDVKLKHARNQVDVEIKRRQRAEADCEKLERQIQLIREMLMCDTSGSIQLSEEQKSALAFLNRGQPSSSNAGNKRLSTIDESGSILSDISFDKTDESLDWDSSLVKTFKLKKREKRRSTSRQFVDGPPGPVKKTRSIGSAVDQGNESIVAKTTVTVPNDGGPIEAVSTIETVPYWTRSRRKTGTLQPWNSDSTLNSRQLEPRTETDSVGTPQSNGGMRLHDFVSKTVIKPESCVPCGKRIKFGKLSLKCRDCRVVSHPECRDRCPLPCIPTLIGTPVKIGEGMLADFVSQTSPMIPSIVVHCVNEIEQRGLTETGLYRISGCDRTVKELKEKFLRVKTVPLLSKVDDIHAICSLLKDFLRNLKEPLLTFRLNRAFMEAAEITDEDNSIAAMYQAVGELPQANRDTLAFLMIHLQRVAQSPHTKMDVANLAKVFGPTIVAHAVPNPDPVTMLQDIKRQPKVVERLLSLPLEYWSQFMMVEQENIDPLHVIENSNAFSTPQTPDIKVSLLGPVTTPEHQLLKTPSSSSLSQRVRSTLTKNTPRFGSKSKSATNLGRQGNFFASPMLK

[5] = Late stage counterscreen results from the probe development effort to identify activators of signal transducer and activator of transcription 1 (STAT1): luminescence-based cell-based dose response assay to identify cytotoxic compounds.; type: functional
[6] = biological target: Luciferin 4-monooxygenase (Photinus pyralis, UniProt P08659); assay: Counter Screen for Luciferase-based Assay Positives. [Related pubchem assays: 620, 618, 411 ]
HT-1080 = assay: cytotoxicity in HT1080 fibrosarcoma cells, cell-based, fluorescence readout (AID 620); type: functional; conditions: Homo sapiens
Troponin, cardiac muscle = Troponin, cardiac muscle (Homo sapiens, UniProt P19429+P45379+P63316); assay: Fluorescence-based biochemical high throughput dose response assay for activators of the calcium sensitivity of cardiac Regulated Thin Filaments (RTF). [Related pubchem assays (depositor defined):AID493008, AID493018, AID504382, AID504383]; type: protein-complex assay
Estrogen receptor = biological target: T3, Estrogen receptor (Homo sapiens, UniProt P03372);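 further: potency for inhibiting coactivator peptide recruitment to the receptor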
T3 sequence (P03372 whole entry): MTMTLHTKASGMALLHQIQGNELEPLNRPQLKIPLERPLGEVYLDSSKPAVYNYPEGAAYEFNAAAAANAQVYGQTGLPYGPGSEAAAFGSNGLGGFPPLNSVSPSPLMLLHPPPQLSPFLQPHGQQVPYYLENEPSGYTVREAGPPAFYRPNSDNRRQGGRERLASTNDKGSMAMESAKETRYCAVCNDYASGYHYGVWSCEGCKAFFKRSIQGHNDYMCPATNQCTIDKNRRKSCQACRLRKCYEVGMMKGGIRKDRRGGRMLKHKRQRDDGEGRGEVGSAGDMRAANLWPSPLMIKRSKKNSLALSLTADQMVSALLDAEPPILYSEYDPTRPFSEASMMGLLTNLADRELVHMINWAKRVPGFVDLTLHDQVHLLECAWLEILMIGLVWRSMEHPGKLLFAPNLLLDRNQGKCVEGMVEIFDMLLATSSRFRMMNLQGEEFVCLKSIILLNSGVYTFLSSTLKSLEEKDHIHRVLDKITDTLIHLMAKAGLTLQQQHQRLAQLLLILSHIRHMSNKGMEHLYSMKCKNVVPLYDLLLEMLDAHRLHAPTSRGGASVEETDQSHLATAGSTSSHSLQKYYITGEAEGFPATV

Estrogen receptor beta [7] = biological target: T4, Estrogen receptor beta (Homo sapiens, UniProt Q92731); assay: ERβ–SRC-3 coactivator interaction inhibitors, confirmation, orthogonal assay, biochemical, ELISA, streptavidin-HRP readout (AID 1060)
Estrogen receptor beta [8] = biological target: T4, Estrogen receptor beta
[9] = biological target: Protein-tyrosine kinase 2-beta (Homo sapiens, UniProt Q14289);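 further: potency of inhibitors of PYK2 kinase phosphorylation of poly-GT substrate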
[10] = biological target: Potassium voltage-gated channel subfamily KQT member 2 (Rattus norvegicus, UniProt O88943, W236L); assay: KCNQ2 channel potentiators, dose response, mechanism study for KCNQ2 potentiator project, cell-based, automated electrophysiology (AID 2603); type: functional
Genome polyprotein = Genome polyprotein (dengue virus type 2, UniProt P29990); assay: Dengue-2 NS5 methyltransferase inhibitors, primary screen, biochemical, confirmation dose response (AID 588689); type: functional
[11] = biological target: T5, Replicative DNA helicase DnaB (Mycobacterium tuberculosis, UniProt P9WMR3); assay: DnaB intein splicing inhibitors, dose response, biochemical, cell-free fluorescence (AID 449749); type: functional
T5 sequence (P9WMR3 whole entry): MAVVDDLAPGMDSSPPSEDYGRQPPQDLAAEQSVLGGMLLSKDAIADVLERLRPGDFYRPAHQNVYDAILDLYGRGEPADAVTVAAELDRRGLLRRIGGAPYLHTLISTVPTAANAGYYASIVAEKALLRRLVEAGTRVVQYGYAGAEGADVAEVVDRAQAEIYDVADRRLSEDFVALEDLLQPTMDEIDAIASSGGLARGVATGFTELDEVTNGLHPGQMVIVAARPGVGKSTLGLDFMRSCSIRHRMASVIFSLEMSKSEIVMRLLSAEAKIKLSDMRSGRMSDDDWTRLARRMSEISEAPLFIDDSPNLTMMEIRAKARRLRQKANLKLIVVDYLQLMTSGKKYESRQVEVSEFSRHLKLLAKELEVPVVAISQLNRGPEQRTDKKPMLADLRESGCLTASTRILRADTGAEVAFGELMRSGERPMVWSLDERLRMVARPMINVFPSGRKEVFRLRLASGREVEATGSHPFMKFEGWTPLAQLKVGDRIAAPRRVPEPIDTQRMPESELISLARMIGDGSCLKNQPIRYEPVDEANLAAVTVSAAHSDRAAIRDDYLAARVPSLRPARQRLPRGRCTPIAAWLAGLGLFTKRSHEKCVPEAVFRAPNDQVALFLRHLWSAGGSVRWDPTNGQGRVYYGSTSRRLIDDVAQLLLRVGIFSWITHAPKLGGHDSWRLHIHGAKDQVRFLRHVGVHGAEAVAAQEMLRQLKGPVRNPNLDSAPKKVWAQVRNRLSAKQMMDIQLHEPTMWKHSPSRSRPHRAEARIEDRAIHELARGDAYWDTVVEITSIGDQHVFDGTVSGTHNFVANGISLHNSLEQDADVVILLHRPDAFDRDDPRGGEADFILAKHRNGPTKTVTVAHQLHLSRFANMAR

[12] = reduction of Shn3 3'UTR firefly luciferase signal, dose response, Schnurri-3 inhibitor project, cell-based, Clone20 osteoblasts, cherry-pick, set 2 (AID 720490); type: functional;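 further: actives lower the luminescence signal as inhibitors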
[13] = Shn3 3'UTR reporter inhibitors, dose response, cell-based, Clone20 osteoblasts, firefly luciferase, cherry-picked (AID 624132); type: functional;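 further: firefly luciferase luminescence from reporter carrying the Shn3 3'UTR in osteoblasts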
[14] = biological target: Hepatocyte nuclear factor 4-alpha (Homo sapiens, UniProt P41235); type: functional, cell-based;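 further: biochemical luminescence-based dose-response counterscreen measuring inhibition of HNF4 dimerization, run alongside a screen for blockers of ABHD5–perilipin-5 interaction; split luciferase complementation of HNF4 fusion proteins in cell lysate measuring dimerization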
Protein RecA = biological target: T6, Protein RecA (Mycobacterium tuberculosis, UniProt P9WHJ3); assay: Fluorescence Cell-Free Homogeneous Dose Retest to Identify Inhibitors of RecA-Intein Splicing Activity. [Related pubchem assays (depositor defined):AID2097, AID2223, AID489010, AID492950]; type: functional
T6 sequence (P9WHJ3 whole entry): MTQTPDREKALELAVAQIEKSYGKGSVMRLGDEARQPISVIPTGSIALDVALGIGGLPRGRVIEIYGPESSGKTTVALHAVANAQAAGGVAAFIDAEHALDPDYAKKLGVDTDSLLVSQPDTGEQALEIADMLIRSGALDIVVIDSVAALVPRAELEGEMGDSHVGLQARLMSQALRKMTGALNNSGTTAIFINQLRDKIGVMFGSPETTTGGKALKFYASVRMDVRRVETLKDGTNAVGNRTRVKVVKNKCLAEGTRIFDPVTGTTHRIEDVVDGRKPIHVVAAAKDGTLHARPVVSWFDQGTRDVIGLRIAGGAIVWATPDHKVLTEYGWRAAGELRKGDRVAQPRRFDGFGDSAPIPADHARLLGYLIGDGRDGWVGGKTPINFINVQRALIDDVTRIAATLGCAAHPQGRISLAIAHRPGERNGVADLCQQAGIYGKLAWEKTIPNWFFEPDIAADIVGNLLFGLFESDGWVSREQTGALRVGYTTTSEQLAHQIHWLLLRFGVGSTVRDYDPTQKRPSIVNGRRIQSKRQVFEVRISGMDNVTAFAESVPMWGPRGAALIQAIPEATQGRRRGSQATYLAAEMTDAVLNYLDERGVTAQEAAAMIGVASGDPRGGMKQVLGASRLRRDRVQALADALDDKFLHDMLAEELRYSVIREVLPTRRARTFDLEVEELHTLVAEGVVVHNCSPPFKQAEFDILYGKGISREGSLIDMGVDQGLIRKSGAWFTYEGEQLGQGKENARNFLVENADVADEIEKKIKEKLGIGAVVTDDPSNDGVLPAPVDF

[15] = biological target: Transitional endoplasmic reticulum ATPase (Homo sapiens, UniProt P55072, C522A); assay: Luminescence counterscreen assay for p97 inhibitors: dose response biochemical high throughput screening assay to identify inhibitors of the C522A mutant p97 ATPase: synthesized compounds. [Related pubchem assays: 1481, 1517, 1551 ]
[16] = biological target: Transitional endoplasmic reticulum ATPase (Homo sapiens, UniProt P55072); assay: Luminescence dose response biochemical high throughput screening assay for inhibitors of the p97 ATPase: synthesized compounds. [Related pubchem assays: 1481, 1517 ]
[17] = M. tuberculosis H37Rv growth inhibitors, H37Rv strain (AID 1626); type: functional
[18] = biological target: Voltage-gated inwardly rectifying potassium channel KCNH2 (Homo sapiens, UniProt Q12809); assay: hERG protection from proarrhythmic block, potency, dose response, cell-based, thallium flux (AID 2121); type: ADME
[19] = biological target: T7, Calpain-2 catalytic subunit (Sus scrofa, UniProt P43367); assay: pig calpain II inhibitor potency, dose response, biochemical, fluorogenic peptide substrate (AID 1420); type: functional
T7 sequence (P43367 whole entry): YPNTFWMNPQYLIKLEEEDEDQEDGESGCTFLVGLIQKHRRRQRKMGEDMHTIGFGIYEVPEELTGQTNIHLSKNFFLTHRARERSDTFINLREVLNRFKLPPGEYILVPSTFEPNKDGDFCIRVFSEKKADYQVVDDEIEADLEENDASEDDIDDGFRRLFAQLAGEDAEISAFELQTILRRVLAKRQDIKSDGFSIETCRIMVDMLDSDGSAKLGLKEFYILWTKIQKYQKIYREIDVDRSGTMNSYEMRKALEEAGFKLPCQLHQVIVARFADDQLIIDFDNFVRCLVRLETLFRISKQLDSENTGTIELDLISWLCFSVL

[20] = biological target: 5-hydroxytryptamine receptor 1A (Homo sapiens, UniProt P08908); type: functional

**Q.** With O=c1[nH]/c(=N\c2ccc(Br)cc2)sc2ccc([N+](=O)[O-])cc12 as the molecule, how does the EC50 [1] read?
**A.** 5.11 µM (active)

**Q.** And the IC50 (SUMO-activating enzyme [2])?
**A.** 15.9 µM (active)

**Q.** What about the IC50 (SUMO-activating enzyme [3]) of the same molecule?
**A.** 34.6 µM (active)

**Q.** Which IC50 [4] does the source give for N#C/C(=C\c1ccc(N2CCOCC2)o1)c1nc2ccccc2[nH]1 here?
**A.** 12.2 µM (active)

**Q.** And the IC50 [5]?
**A.** > 55.7 µM (not active)

**Q.** And the EC50 [6]?
**A.** > 100 µM (not active)

**Q.** What about the EC50 (HT-1080) of the same molecule?
**A.** > 50 µM (not active)

**Q.** And the EC50 (Troponin, cardiac muscle)?
**A.** 0.5 µM (active)

**Q.** With CC(=O)c1ccc(NCC(=O)N2CCN(c3ccccc3)CC2)cc1 as the molecule, how does the IC50 (Estrogen receptor) read?
**A.** 5.02 µM (active)

**Q.** And the IC50 (Estrogen receptor beta [7])?
**A.** 37.1 µM (not active)

**Q.** What about the IC50 (Estrogen receptor beta [8]) of the same molecule?
**A.** 2.64 µM (active)

**Q.** What about the IC50 [9] of the same molecule?
**A.** > 69.5 µM (not active)

**Q.** What does the source list for CCSc1nnc(NC(=O)c2nc(S(=O)(=O)Cc3ccc(F)cc3)ncc2Cl)s1?
**A.** EC50 [10]: 38.9 µM (active); IC50 (Genome polyprotein): 41.5 µM (active); AC50 [11]: 0.419 µM (inconclusive); AC50 [12]: 1.68 µM (active); AC50 [13]: 4.96 µM (active); IC50 [14]: 5.51 µM (active); EC50 (Protein RecA): 1.08 µM (inconclusive)

**Q.** Which IC50 [15] does the source give for N#Cc1ccc(Nc2nc(-c3cccc(Br)c3)cs2)cc1 here?
**A.** > 50 µM (not active)

**Q.** What about the IC50 [16] of the same molecule?
**A.** > 50 µM (not active)

**Q.** For Cn1cc(CN2CCN(c3ccc(Cl)cn3)CC2)c(-c2ccccc2F)n1, which IC50 [17] is on record?
**A.** > 100 µM (active)

**Q.** For S=c1[nH]nc(CSc2nc3ccccc3s2)n1C1CCCCC1, which EC50 [18] is on record?
**A.** 9.55 µM (active)

**Q.** What about the IC50 [19] of the same molecule?
**A.** 14.3 µM (not active)

**Q.** For C1=C(c2c[nH]c3ccccc23)CCNC1, which EC50 [20] is on record?
**A.** > 50 µM (not active)
